In US20220304999A1, “REBAMIPIDE FOR USE IN PREVENTION AND/OR TREATMENT OF ARTERIAL STIFFNESS” (SQUARE POWER LTD., priority 2019, published 2022):

Experiment: Carotid to femoral pulse wave velocity (cfPWV) study in patients suffering from arterial stiffness
Type: in vivo, human
From the text: Aging of cardiovascular system is associated with worsening of arterial cushion function resulting in higher pulse pressure (systolic-diastolic amplitude). Pulse wave velocity (PWV), i.e. velocity at which the blood pressure pulse propagates through the circulatory system, is the gold standard method for arterial stiffness quantification. It can be readily measured non-invasively in humans, is highly reproducible, and predicts future cardiovascular events and all-cause mortality independent of conventional cardiovascular risk factors.
Pulse wave travels along the arteries at a velocity rate, which varies according to wall elasticity: the less elastic the wall, the higher the velocity of PW propagation. PWV measures the time of travel of the pressure wave over a known distance and is calculated as the distance between the two positions of the pulse transducer divided by the time delay measured between pressure upstroke at each site.
To study the effect of rebamipide on arteries, a small study on patients suffering from arterial stiffness was performed. […] Carotid to femoral PWV (cfPWV) was measured in both groups at 0, 3, 6, 9 and 12 months.

O=C(NC(Cc1cc(=O)[nH]c2ccccc12)C(=O)O)c1ccc(Cl)cc1 (centres unmarked) [rebamipide, 2-[(4-chlorobenzoyl)amino]-3-(2-oxo-1H-quinolin-4-yl)propanoic acid]
arterial stiffness (carotid to femoral PWV) (patients with PWV above normal for age, no atherosclerosis or hyperlipidemia, rebamipide 200 mg three times a day for 12 months vs placebo, cfPWV at 0, 3, 6, 9, 12 months): gradually decreasing
difference in arterial stiffness between rebamipide and placebo groups (rebamipide 200 mg three times a day vs placebo, 12 months): reached statistical significance
